Data reported in patent US9949980B2, “Drugs to prevent HPV infection” (Wisconsin Alumni Research Foundation, priority 2008, dated 2018).
Read-outs that look alike come from different tables or passages of the source.

What was measured:
[1] = tested on: HPV16 pseudoviruses; assay: microbe, parasite or virus in culture; type: cell-based; settings: Human papillomavirus 16, HEK-293T, 48 h
Procedure, shortened: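 Viability was read by CellTiter Glo luminescence on the same wells used for the SEAP infection read-out, after 48 hrs further incubation.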

[2] = in vitro; settings: human, Viability (CelTiter Glow)
[3] = tested on: HPV16 pseudovirus; assay: microbe, parasite or virus in culture; type: cell-based; settings: Human papillomavirus 16, HaCaT, read-out: IC50, HPV16 pseudovirus infection
From the text: (§1) FIG. 2. Dose dependence inhibition of HPV16 pseudovirus infection in a human keratinocyte cell line (HaCaT). Graphed are the dose-dependent effects of lead compounds shown in Table 2 on the efficiency of infection by HPV16 pseudovirus scored by measuring luciferase reporter activity (squares) as well as their effects on cell viability (circles).
(§2) All but one of these compounds (6 is […]) were repurchased and subjected to a tertiary screen performed in the human keratinocyte cell line, HaCaT, and using HPV16 pseudoviruses encoding a third reporter gene, firefly luciferase, transcribed from a different, E1a, promoter.
The infectivity assay was repeated at least twice and each assay was performed in replicate (n≥3).
(§3) At 4 hours prior to exposure of cell to pseudoviruses, compounds were added to plates in 1% DMSO final concentration at the indicated amounts. Four hours later, 10 multiplicity of infection (M.O.I.) units of HPV16 pseudovirus carrying the plasmid LucF was added to the cells. 72 hours later, cells were lysed and luciferase assays performed using the Luciferase Assay System (Promega Cat. #E1501). For infection studies with HPV11 and HPV31 pseudoviruses, 200 virus genome equivalents (vge) of virus per cell were used. Cell viability was assessed in parallel plates by Luminescent Cell Viability Assay (Promega Cat. #G7571).

[4] = tested on: HaCaT cells; type: cell-based, human; settings: for CD50 (cytotoxicity): human, 76 h
From the text: as §1, §2, §3

[5] = tested on: HPV11 pseudoviruses; assay: HPV11 pseudovirus infection in HaCaT cells; type: cell-based
Description: (§4) FIG. 4. Compounds 13 and 14 can inhibit infection by multiple anogenital HPVs. Shown are results from infection experiments in HaCaT cells monitoring the efficiency of infection by HPV16, HPV11 and HPV31 pseudovirus carrying the firefly luciferase gene in the absence (0 μM, vehicle only) or increasing concentrations (0.1 to 100 μM) of Compound 13 or 14. The Y axis is the relative efficiency of infection (squares) or cell viability (circles) as a function of drug concentration (X axis). All data points represent the average of values from triplicate samples. […] Data for HPV16 is the also plotted in FIG. 2.
(§5) Compounds 13 and 14: inhibition of infection by multiple papillomavirus genotypes. The goal of this study is to identify compounds that inhibit all sexually transmitted HPVs. For this reason, we monitored the ability of Compounds 13 and 14 to inhibit infection of two additional papillomavirus pseudoviruses that were generated using the capsid proteins of two other sexually transmitted HPVs, high risk HPV31 and low risk HPV11. […]
(§6) At 4 hours prior to exposure of cell to pseudoviruses, compounds were added to plates in 1% DMSO final concentration at the indicated amounts. […] Cell viability was assessed in parallel plates by Luminescent Cell Viability Assay (Promega Cat. #G7571).

[6] = tested on: HPV31 pseudoviruses; assay: HPV31 pseudovirus infection in HaCaT cells; type: cell-based
Description: as §4, §5, §6

[7] = tested on: HPV16, HPV11, and HPV31 pseudovirus; assay: Infection by HPV16, HPV11 and HPV31 pseudovirus in HaCaT cells (all genotypes together); type: cell-based, HPV; settings: for IC50 in words for all three HPV pseudovirus infections: HPV16, HPV11, HPV31, 0.1 to 100 μM; for Concentration that completely inhibited all the tested genotypes: HPV16, HPV11, HPV31 pseudovirus
Description: as §4
Infection experiments in human keratinocyte cell line, HaCaT, monitoring the efficiency of infection by HPV16, HPV11, and HPV31 pseudovirus carrying the firefly luciferase gene were conducted in the absence or increasing concentrations (0.1 to 100 μM) of Compounds 13 and 14 (see FIG. 4).
In vitro data were collected at 3 μM concentration. […] A human treatment dosage is preferably between 0.1 μM and 100 mM, more preferably between 1 and 10 mM.
as §3

[8] = tested on: HPV16 pseudoviruses; assay: Virus particle subcellular localization, fluorescently labeled HPV16 pseudovirus; type: cell-based; settings: 24 hours post infection
Description: FIG. 6. Localization of HPV16 pseudovirions 24 hours post infection. Shown are representative confocal images of cells exposed to cyberXX-labeled HPV16 pseudovirus in the absence (FIG. 6B) or presence of Compound 13 (FIG. 6C) and Compound 14 (FIG. 6D). FIG. 6A is a mock infection negative control. Nuclei are stained.
Mechanism of action of Compounds 13 and 14. To begin to assess the mechanism by which Compounds 13 and 14 inhibit HPV infection, we performed fluorescent microscopy studies on cells treated or not treated with Compounds 13 and 14 that were exposed to HPV16 pseudoviruses in which the encapsidated DNA was labeled with a fluorescent intercalating agent. […] At 24 hours post infection we observed a typical perinuclear staining for the fluorescently labeled HPV16 pseudoviruses in both the untreated and drug treated cells.
Virus particle sub cellular localization studies: A target DNA was labeled with Syto-14 (Invitrogen, 25 NM) in 293FT cells before virus was being packaged. HaCaT cells were infected with the labeled HPV pseudovirus for 24 hours, harvested, and fixed with 1% formaldehyde for 30 minutes, followed by permeabilization with 0.2% Triton X-100 for 10 minutes. Cells were blocked with Image-IT FX Signal Enhancer (Invitrogen) for 30 minutes and incubated with rabbit anti-lamin B1 (ab16048, Abcam) antibodies. […] Virus localization was determined by fluorescence.

[9] = tested on: HPV16 pseudovirus; assay: Luciferase assay: HPV16 pseudovirus with renilla luciferase reporter (HPV16wpA-RL); settings: renilla luciferase reporter behind HPV16 promoter
Description: The protocol for the secondary screen was identical to that of the primary screen with the exception that all volumes were scaled up by a factor of four. RL activity was measured using the Renilla Luciferase Assay System (Promega).

[10] = read-out: Infectivity (SEAP Activity), 3 μM HTS standard concentration, 293T cells, 48 hrs
[11] = read-out: Infectivity vs. viability, 3 μM HTS standard concentration, ratio infectivity/viability
[12] = read-out: Primary HTS SEAP vs Viability, Table 2, first pair of columns (c2)
[13] = read-out: Primary HTS SEAP vs Viability, Table 2, second pair of columns (c4)

SMILES | activity at 3 µM [1, 10] | activity at 3 µM [1, 11] | activity at 3 µM [1, 12] | activity at 3 µM [1, 13] | viability at 52 h, 3 μM [2] | IC50 [3] | Toxicity / cytotoxicity in words [4] | CD50 (cytotoxicity) [4] | IC50 [5] | IC50 [6] | IC50 in words for all three HPV pseudovirus infections [7] | Concentration that completely inhibited all the tested genotypes [7] | Step at which the compound inhibits infection (entry of labeled pseudovirus) [8] | Luciferase assay RL % Average [9]
CCCn1c2ccccc2c2nnc(SC(CC)C(=O)Nc3ccc(Cl)cn3)nc21 (stereo not shown) [Compound 13, N-(5-chloro-2-pyridinyl)-2-[(5-propyl-5H-[1,2,4]triazino[5,6-b]indol-3-yl)thio]butanamide] | 21.8% | 21.4% | 8.25% | 35.4% | 102% | 800 nM | little to no cytotoxicity | 25 µM | < 100 nM | 150 nM | Submicromolar | 10 µM | function post-entry | 150.17%
Cc1cc(C(c2ccc(F)cc2)c2cc(C)c(NC(=O)c3ccccc3)c(C)c2)cc(C)c1NC(=O)c1ccccc1 [Compound 14, N,N′[[(4-fluorophenyl)methylene]bis(2,6-dimethyl-4,1-phenylene)]dibenzamide] | 51% | 46.5% | 65.4% | 36.6% | 110% | 200 nM | little to no cytotoxicity | > 100 µM | < 100 nM | < 100 nM | Submicromolar | 4 µM | function post-entry | 37.54%
